Reference: patent US20150291593A1, “NOVEL HETEROARYL AND HETEROCYCLE COMPOUNDS, COMPOSITIONS AND METHODS” (HUTCHISON MEDIPHARMA LIMITED, priority 2012, published 2015)

Key:
Assay type in all cases: biochemical
p110δ/p85α = molecular target: T1, p110δ/p85α (Homo sapiens, UniProt O00329); assay: Transcreener KINASE Assay, kinase inhibition of p110δ/p85α; settings: for IC50: read-out: PI3Kδ IC50
T1 construct: purchased Invitrogen
Experimental: (§1) PI3K kinases including p110α/p85α, p110δ/p85α and p110γ are purchased from Invitrogen, and p110β/p85α is from Millipore.
(§2) Primary screening data and IC50 values are measured using Transcreener™ KINASE Assay (Bellbrook, Catalog #3003-10K). […] It is a universal, homogenous, high throughput screening (HTS) technology using a far-red, competitive fluorescence polarization immunoassay based on the detection of ADP to monitor the activity of enzymes that catalyze group transfer reactions. Briefly, the Transcreener KINASE Assay is designed as a simple two-part, endpoint assay.
(§3) In the first step, the 25 ul kinase reaction is performed by preparing a reaction mixture containing 5 ul test compound (2% DMSO final concentration), 10 ul kinase, buffer (50 mM HEPES, 100 mM NaCl, 1 mM EGTA, 0.03% CHAPS, 3 mM MgCl2, and freshly supplemented 1 mM DTT), and 10 ul 30 uM PIP2/10 uM ATP. The plate is sealed and incubated for 80 min at room temperature. Next, 25 ul ADP detection mix is added per well. The plate is sealed again and incubated for 60 min at room temperature, and then measure fluorescence polarization by Tecan Infinite F500 Reader.
(§4) Data is analyzed and IC50s are generated using the add-in software for Microsoft Excel, Xlfit™ (version 2.0). IH %=(ADP amount under 2% DMSO-ADP amount under test compound)/ADP amount under 2% DMSO.

p110β/p85α = molecular target: T2, p110β/p85α (Homo sapiens, UniProt P42338); assay: Transcreener KINASE Assay, kinase inhibition of p110β/p85α
T2 construct: purchased Millipore
T2 sequence (P42338 whole entry, species assumed): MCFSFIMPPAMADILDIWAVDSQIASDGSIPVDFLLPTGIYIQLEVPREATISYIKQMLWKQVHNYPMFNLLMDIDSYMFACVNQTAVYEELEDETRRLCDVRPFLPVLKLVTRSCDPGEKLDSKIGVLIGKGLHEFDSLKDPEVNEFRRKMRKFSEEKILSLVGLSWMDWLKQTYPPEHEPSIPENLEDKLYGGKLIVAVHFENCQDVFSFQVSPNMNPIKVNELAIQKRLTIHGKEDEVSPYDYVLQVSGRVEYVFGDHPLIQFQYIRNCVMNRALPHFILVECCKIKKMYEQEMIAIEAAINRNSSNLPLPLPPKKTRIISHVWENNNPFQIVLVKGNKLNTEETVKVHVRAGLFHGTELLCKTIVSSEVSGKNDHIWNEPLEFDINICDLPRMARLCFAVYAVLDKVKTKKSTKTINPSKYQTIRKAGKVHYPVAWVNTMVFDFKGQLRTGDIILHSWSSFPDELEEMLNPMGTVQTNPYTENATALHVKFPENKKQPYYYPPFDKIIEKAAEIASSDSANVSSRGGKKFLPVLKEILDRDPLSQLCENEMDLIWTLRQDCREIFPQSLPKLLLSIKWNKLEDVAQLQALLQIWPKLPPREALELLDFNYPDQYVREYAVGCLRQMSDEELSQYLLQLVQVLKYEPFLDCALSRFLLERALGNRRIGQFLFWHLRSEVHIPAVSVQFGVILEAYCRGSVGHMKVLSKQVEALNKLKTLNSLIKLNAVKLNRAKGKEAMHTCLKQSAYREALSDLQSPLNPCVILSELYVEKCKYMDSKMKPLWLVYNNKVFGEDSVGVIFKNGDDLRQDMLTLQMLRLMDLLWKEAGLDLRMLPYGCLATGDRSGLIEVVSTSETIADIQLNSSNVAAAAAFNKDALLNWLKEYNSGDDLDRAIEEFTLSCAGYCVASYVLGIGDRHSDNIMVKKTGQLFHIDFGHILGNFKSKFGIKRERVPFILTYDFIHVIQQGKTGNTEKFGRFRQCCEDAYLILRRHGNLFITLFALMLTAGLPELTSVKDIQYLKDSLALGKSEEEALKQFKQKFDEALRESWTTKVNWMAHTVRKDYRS
T2 sequence (P27986 whole entry partner, species assumed): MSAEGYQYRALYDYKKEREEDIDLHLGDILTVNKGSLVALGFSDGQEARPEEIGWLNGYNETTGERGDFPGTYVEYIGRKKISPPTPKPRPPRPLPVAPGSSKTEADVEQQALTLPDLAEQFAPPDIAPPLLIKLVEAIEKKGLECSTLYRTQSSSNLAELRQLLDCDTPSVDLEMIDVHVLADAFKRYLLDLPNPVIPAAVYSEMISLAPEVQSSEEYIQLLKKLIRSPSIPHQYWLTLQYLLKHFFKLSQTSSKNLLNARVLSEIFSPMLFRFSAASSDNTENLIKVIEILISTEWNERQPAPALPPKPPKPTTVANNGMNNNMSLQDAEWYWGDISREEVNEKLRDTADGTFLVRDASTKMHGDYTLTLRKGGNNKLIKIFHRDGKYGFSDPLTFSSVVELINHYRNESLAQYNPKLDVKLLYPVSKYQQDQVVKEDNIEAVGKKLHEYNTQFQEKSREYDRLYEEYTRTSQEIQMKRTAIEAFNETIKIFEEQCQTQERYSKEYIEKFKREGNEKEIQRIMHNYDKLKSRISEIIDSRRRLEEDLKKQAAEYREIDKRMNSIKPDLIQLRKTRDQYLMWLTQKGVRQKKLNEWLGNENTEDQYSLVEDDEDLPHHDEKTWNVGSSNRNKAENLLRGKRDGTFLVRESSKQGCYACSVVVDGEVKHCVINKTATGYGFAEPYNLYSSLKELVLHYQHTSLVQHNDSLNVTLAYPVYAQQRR
Experimental: as §1, §2, §3, §4

p110γ = molecular target: T3, p110γ (Homo sapiens, UniProt P48736); assay: Transcreener KINASE Assay, kinase inhibition of p110γ; settings: for IC50: read-out: PI3Kγ IC50
T3 construct: purchased Invitrogen
T3 sequence (P48736 whole entry, species assumed): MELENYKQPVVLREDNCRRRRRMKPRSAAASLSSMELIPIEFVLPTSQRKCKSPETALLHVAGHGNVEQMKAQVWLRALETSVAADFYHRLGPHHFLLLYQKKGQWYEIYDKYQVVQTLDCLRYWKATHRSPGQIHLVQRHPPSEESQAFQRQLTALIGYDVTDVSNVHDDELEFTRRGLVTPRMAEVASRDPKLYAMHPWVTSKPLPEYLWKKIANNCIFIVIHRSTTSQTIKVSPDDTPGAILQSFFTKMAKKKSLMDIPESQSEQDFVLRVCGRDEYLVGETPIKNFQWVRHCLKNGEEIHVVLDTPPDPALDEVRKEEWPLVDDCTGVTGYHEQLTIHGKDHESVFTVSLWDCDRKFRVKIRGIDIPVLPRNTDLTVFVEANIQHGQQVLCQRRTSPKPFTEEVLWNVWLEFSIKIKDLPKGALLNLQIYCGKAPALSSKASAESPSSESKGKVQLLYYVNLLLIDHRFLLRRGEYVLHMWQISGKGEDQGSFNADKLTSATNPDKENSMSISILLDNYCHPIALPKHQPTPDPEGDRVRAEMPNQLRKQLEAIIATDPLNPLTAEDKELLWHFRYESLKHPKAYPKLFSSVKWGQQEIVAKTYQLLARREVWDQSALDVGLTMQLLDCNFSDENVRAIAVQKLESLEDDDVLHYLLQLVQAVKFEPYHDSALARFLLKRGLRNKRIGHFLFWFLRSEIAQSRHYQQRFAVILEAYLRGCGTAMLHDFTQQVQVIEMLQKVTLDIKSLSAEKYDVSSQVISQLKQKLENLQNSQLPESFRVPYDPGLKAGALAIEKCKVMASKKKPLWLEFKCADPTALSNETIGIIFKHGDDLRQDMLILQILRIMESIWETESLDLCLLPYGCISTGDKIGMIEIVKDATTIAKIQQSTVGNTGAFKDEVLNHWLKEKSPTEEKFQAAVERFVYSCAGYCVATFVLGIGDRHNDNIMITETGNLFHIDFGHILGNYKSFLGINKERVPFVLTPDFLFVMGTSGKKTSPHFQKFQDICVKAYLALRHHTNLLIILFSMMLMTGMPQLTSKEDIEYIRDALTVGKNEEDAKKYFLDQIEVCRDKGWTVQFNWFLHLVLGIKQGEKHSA
Experimental: PI3K kinases including p110α/p85α, p110δ/p85α and p110γ are purchased from Invitrogen, and p110β/p85α is from Millipore. Primary screening data and IC50 values are measured using Transcreener™ KINASE Assay (Bellbrook, Catalog #3003-10K). […] It is a universal, homogenous, high throughput screening (HTS) technology using a far-red, competitive fluorescence polarization immunoassay based on the detection of ADP to monitor the activity of enzymes that catalyze group transfer reactions. Briefly, the Transcreener KINASE Assay is designed as a simple two-part, endpoint assay. […] The plate is sealed and incubated for 80 min at room temperature. Next, 25 ul ADP detection mix is added per well. The plate is sealed again and incubated for 60 min at room temperature, and then measure fluorescence polarization by Tecan Infinite F500 Reader. Data is analyzed and IC50s are generated using the add-in software for Microsoft Excel, Xlfit™ (version 2.0).

T1 sequence (O00329 whole entry, species assumed): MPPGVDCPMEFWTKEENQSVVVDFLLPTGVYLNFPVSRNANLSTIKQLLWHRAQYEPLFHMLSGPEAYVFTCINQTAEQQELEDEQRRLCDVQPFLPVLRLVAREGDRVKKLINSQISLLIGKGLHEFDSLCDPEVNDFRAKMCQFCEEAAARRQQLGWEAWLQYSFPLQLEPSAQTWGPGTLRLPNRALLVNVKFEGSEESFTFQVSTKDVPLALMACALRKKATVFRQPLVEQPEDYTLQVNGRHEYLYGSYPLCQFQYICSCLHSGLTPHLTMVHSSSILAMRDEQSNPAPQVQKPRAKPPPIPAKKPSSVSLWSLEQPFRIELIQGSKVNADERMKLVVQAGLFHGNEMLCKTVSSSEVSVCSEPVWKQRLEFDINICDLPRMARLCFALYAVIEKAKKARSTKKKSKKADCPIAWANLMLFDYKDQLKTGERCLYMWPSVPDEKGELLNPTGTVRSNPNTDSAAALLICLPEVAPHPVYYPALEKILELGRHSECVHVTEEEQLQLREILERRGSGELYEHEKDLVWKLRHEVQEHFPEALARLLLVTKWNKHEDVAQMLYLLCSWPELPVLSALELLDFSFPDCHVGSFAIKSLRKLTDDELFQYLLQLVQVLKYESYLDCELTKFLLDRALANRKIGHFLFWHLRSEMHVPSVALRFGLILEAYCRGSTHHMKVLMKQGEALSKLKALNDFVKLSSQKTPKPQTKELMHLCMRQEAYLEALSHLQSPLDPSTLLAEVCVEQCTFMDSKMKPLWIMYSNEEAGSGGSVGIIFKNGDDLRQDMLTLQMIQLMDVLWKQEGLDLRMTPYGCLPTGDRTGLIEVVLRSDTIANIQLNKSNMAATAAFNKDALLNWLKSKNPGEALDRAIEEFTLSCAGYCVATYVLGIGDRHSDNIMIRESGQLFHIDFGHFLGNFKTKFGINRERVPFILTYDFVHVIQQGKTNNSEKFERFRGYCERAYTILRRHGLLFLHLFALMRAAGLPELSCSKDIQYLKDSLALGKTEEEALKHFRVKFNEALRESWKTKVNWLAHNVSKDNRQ
T1 sequence (P27986 whole entry partner, species assumed): as the sequence (P27986 whole entry partner, species assumed) above

CC(Nc1ncnc2[nH]cc(F)c12)c1cc2ncc(Cl)n2c(=O)n1-c1ccccc1 (single isomer, unassigned) [Compound 451]
IC50 (p110δ/p85α): 35 nM

CC(=O)c1cnc(N)nc1NC(C)c1cn2ccc(F)c2c(=O)n1-c1ccccc1 (single isomer, unassigned) [Compound 452]
IC50 (p110β/p85α; read-out: PI3Kβ IC50): 13 nM | IC50 (p110δ/p85α): 0.3 nM | IC50 (p110γ): 1 nM

COc1cccc(-n2c([C@@H]3CCCN3c3ncnc4[nH]cc(C#N)c34)nn3cccc3c2=O)c1 [Compound 9]
PI3Kβ IH % @ 1 uM (p110β/p85α): 31.1% | PI3Kδ IH % @ 1 uM (p110δ/p85α): >100% | PI3Kγ IH % @ 1 uM (p110γ): 83.8%

Nc1nc(N2CCC[C@H]2c2nn3cccc3c(=O)n2-c2ccccc2)c2cc[nH]c2n1 [Compound 10]
PI3Kβ IH % @ 1 uM (p110β/p85α): 6.0% | PI3Kδ IH % @ 1 uM (p110δ/p85α): 60.4% | PI3Kγ IH % @ 1 uM (p110γ): 59.5%

Nc1nc(N2CCC[C@H]2c2nn3cccc3c(=O)n2-c2ccccc2)c2cn[nH]c2n1 [Compound 11]
PI3Kβ IH % @ 1 uM (p110β/p85α): −7.7% | PI3Kδ IH % @ 1 uM (p110δ/p85α): 22.9% | PI3Kγ IH % @ 1 uM (p110γ): 24.4%

O=c1c2cccn2nc([C@@H]2CCCN2c2ncnc3[nH]nc(Br)c23)n1-c1ccccc1 [Compound 12]
PI3Kβ IH % @ 1 uM (p110β/p85α): 23.1% | PI3Kδ IH % @ 1 uM (p110δ/p85α): 80.6% | IC50 (p110δ/p85α): 158 nM | PI3Kγ IH % @ 1 uM (p110γ): 27.9%

O=c1c2cccn2nc([C@@H]2CCCN2c2ncnc3[nH]cnc23)n1-c1cccc(F)c1 [Compound 13]
PI3Kβ IH % @ 1 uM (p110β/p85α): 18.0% | PI3Kδ IH % @ 1 uM (p110δ/p85α): 97.8% | PI3Kγ IH % @ 1 uM (p110γ): 71.9% | IC50 (p110γ): 477 nM

O=c1c2cccn2nc([C@@H]2CCCN2c2ncnc3[nH]cnc23)n1-c1ccc(F)cc1 [Compound 14]
PI3Kβ IH % @ 1 uM (p110β/p85α): 56.9% | PI3Kδ IH % @ 1 uM (p110δ/p85α): 90.7% | PI3Kγ IH % @ 1 uM (p110γ): 78.1% | IC50 (p110γ): 265 nM

N#Cc1c[nH]c2ncnc(N3CCC[C@H]3c3nn4cccc4c(=O)n3-c3cccc(F)c3)c12 [Compound 16]
PI3Kβ IH % @ 1 uM (p110β/p85α): 25.1% | PI3Kδ IH % @ 1 uM (p110δ/p85α): 100% | PI3Kγ IH % @ 1 uM (p110γ): 87.3% | IC50 (p110γ): 85 nM

O=c1c2cccn2nc([C@@H]2CCCN2c2ncnc3[nH]cnc23)n1-c1cccc(Cl)c1 [Compound 17]
PI3Kβ IH % @ 1 uM (p110β/p85α): 9.2% | PI3Kδ IH % @ 1 uM (p110δ/p85α): 100% | PI3Kγ IH % @ 1 uM (p110γ): 60.3%

Nc1ncnc(N2CCC[C@H]2c2nn3cccc3c(=O)n2-c2ccccc2)c1Cl [Compound 18]
PI3Kβ IH % @ 1 uM (p110β/p85α): 30.9% | PI3Kδ IH % @ 1 uM (p110δ/p85α): 100% | PI3Kγ IH % @ 1 uM (p110γ): 53.2%

COc1cccc(-n2c([C@@H]3CCCN3c3ncnc(N)c3C#N)nn3cccc3c2=O)c1 [Compound 19]
PI3Kβ IH % @ 1 uM (p110β/p85α): 24.0% | PI3Kδ IH % @ 1 uM (p110δ/p85α): 100% | PI3Kγ IH % @ 1 uM (p110γ): 75.7% | IC50 (p110γ): 287 nM

COc1cccc(-n2c([C@@H]3CCCC3c3ncnc4[nH]cnc34)nn3cccc3c2=O)c1 (stereo partly drawn) [Compound 20]
PI3Kβ IH % @ 1 uM (p110β/p85α): 7.5% | PI3Kδ IH % @ 1 uM (p110δ/p85α): 97.4% | PI3Kγ IH % @ 1 uM (p110γ): 68.6%

COc1cccc(-n2c([C@@H]3CCCN3c3ncnc(N)c3Cl)nn3cccc3c2=O)c1 [Compound 21]
PI3Kβ IH % @ 1 uM (p110β/p85α): −1.3% | PI3Kδ IH % @ 1 uM (p110δ/p85α): 94.3% | PI3Kγ IH % @ 1 uM (p110γ): 30.4%

N#Cc1c[nH]c2ncnc(N3CCC[C@@H]3c3nn4cccc4c(=O)n3-c3ccccc3)c12 [Compound 22]
PI3Kβ IH % @ 1 uM (p110β/p85α): 8.9% | PI3Kδ IH % @ 1 uM (p110δ/p85α): 7.7% | PI3Kγ IH % @ 1 uM (p110γ): 21.2%

N#Cc1cccc(-n2c([C@@H]3CCCN3c3ncnc4[nH]cc(C#N)c34)nn3cccc3c2=O)c1 [Compound 23]
PI3Kβ IH % @ 1 uM (p110β/p85α): 36.9% | PI3Kδ IH % @ 1 uM (p110δ/p85α): 99.2% | PI3Kγ IH % @ 1 uM (p110γ): 81.9% | IC50 (p110γ): 273 nM

O=c1c2cccn2nc([C@H]2CCCN2c2ncnc3[nH]cnc23)n1-c1ccccc1 [Compound 24]
PI3Kβ IH % @ 1 uM (p110β/p85α): 8.3% | PI3Kδ IH % @ 1 uM (p110δ/p85α): 17.7% | PI3Kγ IH % @ 1 uM (p110γ): 14.1%

Cc1ccn2nc([C@@H]3CCCN3c3ncnc4[nH]cc(C#N)c34)n(-c3ccccc3)c(=O)c12 [Compound 42]
IC50 (p110δ/p85α): ~1 nM

N#Cc1c[nH]c2ncnc(N3C[C@H](O)C[C@H]3c3nn4ccc(Cl)c4c(=O)n3-c3ccccc3)c12 [Compound 70, 4-((2S,4R)-2-(5-chloro-4-oxo-3-phenyl-3,4-dihydropyrrolo[1,2-f][1,2,4]triazin-2-yl)-4-hydroxypyrrolidin-1-yl)-7H-pyrrolo[2,3-d]pyrimidine-5-carbonitrile]
PI3Kγ IH % @ 1 uM (p110γ): >100%

CC(Nc1ncnc2[nH]cc(C#N)c12)c1cn2ccc(Cl)c2c(=O)n1-c1cccc(F)c1 (stereo not drawn) [Compound 76]
PI3Kβ IH % @ 1 uM (p110β/p85α): 82.0% | IC50 (p110δ/p85α): 4 nM | IC50 (p110γ): 10 nM
